Source: patent publication US20200123495A1, “COMPOSITION AND METHOD FOR CONTROLLING INSECTS AND MICR[…] PSEUDOMONAS […]” (Academia Sinica, priority 2014, published 2020)

Columns and labels:
[1] = CAS plate assay (removal of iron from the CAS dye); settings: 1.2 and 1.5 mg pyoverdine on CAS agar plates
Procedure: Chrome azurol S (CAS) is a universal method that detects the mobilization of iron, which assays siderphores production. To prepare 100 ml CAS dye, 60.5 mg CAS powder (Sigma) was dissolved in 50 ml distilled water and mixed with 10 ml of 1 mM iron solution (anhydration FeCl3, Alfa Aesar). Then, 40 ml of 72.9 mg HDTMA (Sigma) was added slowly to 60 ml CAS solution with FeCl3 and autoclaved to sterilize. After CAS cool down can be hand held, one-tenth of CAS solution mixed with LP agar medium and immediately poured into plates.
Different concentration of purified pyoverdine was injected into the hole (5 mm) of CAS plates. Plates were incubated at 28° C. for 6 h or until yellow halo appearance.

[2] = test system: Xanthomonas oryzae pv. oryzae (Xoo)
[3] = test system: Drosophila melanogaster; settings: previous study, Liu et al. 2010; cited from earlier work

Row | Compound | CAS reaction rate [1] | IC50 toward Xoo (inhibition of cell growth) [2] | LD50 against Xoo (lethal dose) [2] | mortality in Drosophila larvae [3]
1 | C[C@@H](O)[C@@H](NC(=O)[C@@H](NC(=O)[C@H](CCCCN)NC(=O)[C@@H](CO)NC(=O)C1CCN=C2C(NC(=O)CCC(=O)O)=Cc3cc(O)c(O)cc3N21)C(O)c1c[nH]cn1)C(=O)N[C@@H](CO)C(=O)N[C@H]1CCCN(O)C1=O (stereo partly drawn) [pyoverdine, Q-DSer-Lys-OHHis-aDThr-Ser-cOHOrn] | rapidly detected | about 2.035 mg/ml | about 1.98 mg/ml | 
2 | recombinant TccC: TccC gene from P. taiwanensis overexpressed in E. coli (SEQ ID NO:2) |  |  |  | increase the mortality
